Results reported in the supplement of paper PMC7224384.

Legend:
MDA-MB-453 [1] = test: drug sensitivity score (DSS), in combination with BLU9931 (DSS (weighted AUC score)); higher = more sensitive (stronger viability decrease); extreme values may be limits of the assay; conditions: BLU9931 100 nM; 72 h
Procedure, shortened: (§1)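 Cells of the MDA-MB-453 line (2000 per well) were added in medium, with or without 100 nM final FGFR4 inhibitor, to 384-well plates predispensed with FIMM Oncology set compounds at five 10-fold dilutions covering a 10,000-fold range. After 72 h at 37 °C, 5% CO2, CellTiterGlo 2.0 read cellular ATP. Percent viability came from per-plate normalisation to control wells, and the drug sensitivity score was defined as a weighted area under a four-parameter logistic fit.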

MDA-MB-453 [2] = test: drug sensitivity score (DSS), single agent (DSS (weighted AUC score)); higher = more sensitive (stronger viability decrease); extreme values may be limits of the assay; conditions: BLU9931 0 nM; 72 h
Procedure, shortened: as §1

Compound	drug sensitivity score (MDA-MB-453 [1])	drug sensitivity score (MDA-MB-453 [2])
O=C(O)CC1CC(c2ccccc2)=NO1 (stereo unspecified) [VGX-1027]	0	0
NCCNc1ccc(NCCN)c2c1C(=O)c1ccncc1C2=O [Pixantrone]	1	1
Nc1ccn([C@@H]2O[C@H](CO)[C@@H](O)C2(F)F)c(=O)n1 [Gemcitabine]	6	6.9
C[C@@H](Oc1cc(-n2cnc3ccc(CN4CCN(C)CC4)cc32)sc1C(N)=O)c1ccccc1C(F)(F)F	6.3	11.5
Cc1ccc(NC(=O)c2ccc(CN3CC[C@H](N(C)C)C3)c(C(F)(F)F)c2)cc1Nc1nccc(-c2cncnc2)n1 [Bafetinib]	0	0
CNC(=O)c1ccccc1Nc1nc(Nc2ccc3c(c2OC)CCC[C@H](N2CCN(CCO)CC2)C3)ncc1Cl	5.6	6.7
O=C(CCCCCCNC(=O)c1cnc(N(c2ccccc2)c2ccccc2)nc1)NO [Rocilinostat]	9.8	9.2
Cc1ccc(-c2cc(C(F)(F)F)nn2-c2ccc(S(N)(=O)=O)cc2)cc1 [Celecoxib]	0	0.4
C=CC(=O)N1CCC[C@@H](n2nc(-c3ccc(Oc4ccccc4)cc3)c3c(N)ncnc32)C1 [Ibrutinib]	15.8	14.5
C[C@@H]1C[C@H]2[C@@H]3CCC4=CC(=O)C=C[C@]4(C)[C@@]3(F)[C@@H](O)C[C@]2(C)[C@@]1(O)C(=O)CO [Dexamethasone]	0	4
Cc1sc2c(c1C)C(c1ccc(Cl)cc1)=N[C@@H](CC(=O)NCCCCNC(=O)COc1cccc3c1C(=O)N(C1CCC(=O)NC1=O)C3=O)c1nnc(C)n1-2 (stereo partly specified) [dBET1]	13.2	12.2
CC(C)C[C@H](NC(=O)CNC(=O)c1cc(Cl)ccc1Cl)B(O)O [Ixazomib]	7.4	9.4
CO[C@@H](C(=O)N1Cc2[nH]nc(NC(=O)c3ccc(N4CCN(C)CC4)cc3)c2C1)c1ccccc1 [Danusertib]	0	0.3
CCCCCOC(=O)Nc1nc(=O)n([C@@H]2O[C@H](C)[C@@H](O)[C@H]2O)cc1F [Capecitabine]	0.2	2.3
COc1cccc2c1C(=O)c1c(O)c3c(c(O)c1C2=O)C[C@@](O)(C(C)=O)C[C@@H]3O[C@H]1C[C@H](N)[C@H](O)[C@H](C)O1 [Daunorubicin]	5.4	7.4
CC[C@@H]1C(=O)N(C)c2cnc(Nc3ccc(C(=O)NC4CCN(C)CC4)cc3OC)nc2N1C1CCCC1 [BI 2536]	9.2	10.4
C[C@H]1C[C@@H]2[C@H]([C@@H](O)C[C@@]3(C)[C@H]2CC[C@]3(O)C(=O)CO)[C@@]2(C)C=CC(=O)C=C12 [Methylprednisolone]	0	5.2
CNC(=O)[C@@H](NC(=O)[C@H](CC(C)C)[C@H](O)C(=O)NO)C(C)(C)C [Marimastat]	0.8	1.1
CC(C)(C)c1cc(NC(=O)Nc2ccc(Oc3ccnc4[nH]c(=O)cnc34)cc2F)n(-c2ccccc2)n1	6.7	7.9
O=C(NCc1ccncc1)C12CC3CC(C1)CC(c1ccc(Cl)cc1)(C3)C2	0	1.1
COc1cccc(-c2ccc(NC(=O)C3=C(C(=O)O)CCC3)c(F)c2)c1 [Vidofludimus]	0	0.4
CN(c1ncccc1CNc1nc(Nc2ccc3c(c2)CC(=O)N3)ncc1C(F)(F)F)S(C)(=O)=O	3.9	3.9
Cc1cccc(-c2nn3c(c2-c2ccnc4ccc(C(N)=O)cc24)CCC3)n1 [Galunisertib]	0	0
NC1(c2ccc(-c3nc4ccn5c(=O)[nH]nc5c4cc3-c3ccccc3)cc2)CCC1 [MK-2206]	8.9	8.3
N#CC1(c2ccc(NC(=O)c3cccnc3NCc3ccncc3)cc2)CCCC1 [Apatinib]	0	0.7
CNC(=O)c1cccc2cc(Oc3ccnc4cc(OCC5(N)CC5)c(OC)cc34)ccc12 [Lucitanib]	0.9	2.9
O=C(O)C(=O)O.[NH-][C@@H]1CCCC[C@H]1[NH-].[Pt+2] [Oxaliplatin]	7	8.2
COCCNCc1ccc(-c2cc3nccc(Oc4ccc(NC(=S)NC(=O)Cc5ccc(F)cc5)cc4F)c3s2)nc1 [Glesatinib]	0.5	0.7
